# Experiments:
# Pim-1 = target: T1, Pim-1 (Homo sapiens, UniProt P11309); test: ADP-Glo kinase inhibition assay, Pim-1; format: biochemical; settings: percentage of maximum activity of the DMSO control, mean n = 2, 10 µM ATP, read-out: Residual activity Pim-1; for remaining activity at 1 µM: 1 μM compound; for remaining activity at 10 µM: 10 μM compound
# T1 construct: host or cells: bacteria
# Method: Kinase enzymatic activities were assayed in 384-well plates using the ADP-Glo^TM assay kit (Promega, Madison, WI, USA) according to the recommendations of the manufacturer. This luminescent ADP detection assay was described by Zegzouti and co-workers and provides a homogeneous and high-throughput screening method to measure kinase activity by quantifying the amount of ADP produced during a kinase reaction. Briefly, the reactions were carried out in a final volume of 6 µL for 30 min at 30 °C in an appropriate kinase buffer (10 mM MgCl2, 1 mM EGTA, 1 mM DTT, 25 mM Tris-HCl pH 7.5, 50 µg/mL heparin), with peptide or protein as substrate in the presence of 10 µM ATP. Peptide substrates were obtained from ProteoGenix (Schiltigheim, France) or Sigma for Histone H1, Poly (L-glutamic acid–L-tyrosine) sodium salt, Casein and MBP. After that, 6 µL of ADP-Glo^TM Kinase Reagent was added to stop the kinase reaction. After an incubation time of 50 min at room temperature (rt), 12 µL of Kinase Detection Reagent was added for one hour at rt. The transmitted signal was measured using the Envision (PerkinElmer, Waltham, MA, USA) microplate luminometer and expressed as Relative Light Units (RLUs). Kinase activities are expressed as percentages of remaining kinase activities detected after treatment with 1 or 10 µM of the tested compounds. The maximum kinase activity was measured in the absence of inhibitor but with an equivalent dose of DMSO (solvent of the tested compounds).
# 3. Kinase inhibition assays
# Kinase enzymatic activities were assayed in 384-well plates using the ADP-GloTM assay kit (Promega, Madison, WI) according to the recommendations of the manufacturer. This luminescent ADP detection assay was described by Zegzouti and co-workers and provides a homogeneous and high-throughput screening method to measure kinase activity by quantifying the amount of ADP produced during a kinase reaction. Briefly, the reactions were carried out in a final volume of 6 µl for 30 min at 30°C in appropriate kinase buffer (10 mM MgCl2, 1 mM EGTA, 1 mM DTT, 25 mM Tris-HCl pH 7.5, 50 µg/mL heparin), with peptide or protein as substrate in the presence of 10 µM ATP. Peptide substrates were obtained from ProteoGenix (Schiltigheim, France) or Sigma for Histone H1, Poly (L-glutamic acid – L-tyrosine) sodium salt, Casein and MBP. After that, 6 µL of ADP-GloTM Kinase Reagent was added to stop the kinase reaction. After an incubation time of 50 min at room temperature (rt), 12 µL of Kinase Detection Reagent was added for 1 h at rt. The transmitted signal was measured using the Envision (PerkinElmer, Waltham, MA) microplate luminometer and expressed in Relative Light Unit (RLU). Kinase activities are expressed in percentages of remaining kinase activities detected after treatment with 1 or 10 µM of the tested compounds. The maximal kinase activity is measured in the absence of inhibitor but with an equivalent dose of DMSO (solvent of the tested compounds).
# Table. Human protein kinases tested in the panel: CDK9, HASPIN, PIM1, GSK3b, CK1ε, JAK3, CLK1 […]
# Protein Kinase Enzyme Description Substrate1
# (Family) (Working concentration)
# CDK9/CyclinT Human, recombinant, expressed by Peptide:
# (CMGC) baculovirus in Sf9 insect cells […]
# CLK1 Human, recombinant, expressed by Peptide: […]
# (CMGC) baculovirus in Sf9 insect cells (57.3µM)
# DYRK1A Human, recombinant, expressed by Peptide: […]
# (CMGC) baculovirus in Sf9 insect cells (10.7µM)
# PIM1 Human proto-oncogene, recombinant, Peptide: […]
# (CAMK) expressed in bacteria (630 µM)
# GSK3 Human, recombinant, expressed by Peptide:
# (CMGC) baculovirus in Sf9 insect cells […]pEDEEE 3
# HASPIN Human, kinase domain, amino acids 470 to Histone H3 peptide (1-21):
# (Other) 798, recombinant, expressed in bacteria […] (8µM)
# CK1ε Human, recombinant, expressed by Peptide: […]pAYSITA 2
# (CK1) baculovirus in Sf9 insect cells (170µM)
# JAK3 Human, recombinant, expressed by Peptide: […]
# (TK) baculovirus in Sf9 insect cells (94µM) […]
# [1] = In vitro cytotoxic assay, Huh7-D12; format: cell-based; settings: human, Huh7-D12 cells (liver cancer cell line)
# Method: (§1) Skin normal fibroblastic cells were purchased from Lonza (Basel, Switzerland). […] All culture media were supplemented by 10% of FBS, 1% of penicillin–streptomycin and 2 mM glutamine.
# (§2) Chemicals were solubilized in DMSO at a concentration of 10 mM (stock solution) and diluted in culture medium to the desired final concentrations. […] Cells were plated in 96-well plates (4000 cells/well). Twenty-four hours after seeding, the cells were exposed to chemicals. […] Image acquisition and analysis were performed using a Cellomics ArrayScan VTI/HCS Reader (ThermoScientific, Les Ulis, France). The survival percentages were calculated as the percentage of cell number after compound treatment over cell number after DMSO treatment. The relative IC50 values were calculated using the curve fitting XLfit 5.5.0.5 (idbs) integrated in Microsoft Excel as an add-on.
# (§3) 4.3.1. Cell culture. Skin normal fibroblastic cells are purchased from Lonza (Basel, Switzerland). Huh7- […]
# (§4) from ATCC (American Type Culture Collection). […]
# (§5) supplemented by 10% of FBS, 1% of penicillin-streptomycin and 2 mM glutamine.
# (§6) 4.3.2. Cytotoxic assay. Chemicals were solubilized in DMSO at a concentration of 10 mM (stock solution) and diluted in culture medium to the desired final concentrations. The dose effect cytotoxic assays (IC50 determination) were performed by increasing the concentrations of each chemical (final well […]
# (§7) Cells were plated in 96-well plates
# (§8) (4000 cells/well). Twenty-four hours after seeding, cells were exposed to chemicals. After 48h of treatment, cells were washed in PBS and fixed in cooled 90% ethanol/5% acetic acid for 20 min and the […]
# (§9) Image acquisition and analysis were performed using a Cellomics ArrayScan VTI/HCS Reader (ThermoScientific). The survival percentages were calculated as the percentage of cell number after compound treatment over cell number after DMSO treatment. The relative IC50 were calculated using the curve fitting XLfit 5.5.0.5 (idbs) integrated in Microsoft Excel as an add-on. The 4 Parameter Logistic Model or Sigmoidal Dose-Response Model describing the sigmoid-shaped response pattern was used (fit = (A+[(B-A)/(1+[(C/x)^D])]) where fit is the response and X is the tested concentration of the compound. The lower asymptote is A (also referred to as the bottom of the curve or lower plateau or the min) and the upper asymptote is B (also referred to as the top of the curve or upper plateau or the max). The slope of the linear part of the curve is described by the factor D. The parameter C is the concentration corresponding to the response midway between A and B. C is called “relative IC50” because it refers to the maximum response obtained by a […]
# (§10) The results are represented as the mean ± standard error (SE) calculated from at least three independent experiments.
# [2] = In vitro cytotoxic assay, MDA-MB-468; format: cell-based; settings: human, MDA-MB-468 cells (breast cancer cell line); read-out: In vitro cytotoxic activity IC50, MBA-MB4-68
# Method: as §1, §2, §3, §4, §5, §6, §7, §8, §9, §10
# T1 sequence (P11309 whole entry): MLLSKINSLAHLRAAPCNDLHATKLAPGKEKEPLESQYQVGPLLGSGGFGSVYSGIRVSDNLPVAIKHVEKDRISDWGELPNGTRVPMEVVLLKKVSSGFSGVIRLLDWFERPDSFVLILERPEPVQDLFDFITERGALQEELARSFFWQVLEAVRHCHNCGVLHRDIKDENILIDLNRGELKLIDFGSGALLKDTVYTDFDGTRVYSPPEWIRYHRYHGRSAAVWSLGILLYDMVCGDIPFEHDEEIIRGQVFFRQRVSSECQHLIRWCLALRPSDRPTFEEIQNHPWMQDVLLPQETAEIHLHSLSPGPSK
SMILES,remaining activity at 1 µM (Pim-1) [%],remaining activity at 10 µM (Pim-1) [%],IC50 at 48 h [1] [µM],IC50 at 48 h [2] [µM]
"COC(=N)c1nc2ccc3ncn(Cc4ccccc4)c(=O)c3c2s1 [Compound I, methyl 8-benzyl-9-oxo-8,9-dihydrothiazolo[5,4-f]quinazoline-2-carbimidate, reference compound]",79,77,15,21
"COC(=N)c1nc2cc3ncn(Cc4ccccc4)c(=O)c3cc2s1 [Compound 6b, Methyl 7-benzyl-8-oxo-7,8-dihydrothiazolo[5,4-g]quinazoline-2-carbimidate]",90,78,1,1
"COC(=N)c1nc2c(ccc3c(=O)n(Cc4ccccc4)cnc32)s1 [Compound 6c, Methyl 7-benzyl-6-oxo-6,7-dihydrothiazolo[5,4-h]quinazoline-2-carbimidate]",74,86,10,13
"COC(=N)c1nc2cc3ncnc(Nc4ccc(OC)cc4F)c3cc2s1 [Compound 15b, Methyl 8-[(2-fluoro-4-methoxyphenyl)amino]thiazolo[5,4-g]quinazoline-2-carbimidate]",74,105,–,–
"COC(=N)c1nc2cc3c(Nc4ccc(OC)cc4F)ncnc3cc2s1 [Compound 15a, Methyl 8-[(2-fluoro-4-methoxyphenyl)amino]thiazolo[4,5-g]quinazoline-2-carbimidate]",71,113,8,–
"COC(=N)c1nc2cc3c(=O)n(Cc4ccccc4)cnc3cc2s1 [Compound 6a, Methyl 7-benzyl-8-oxo-7,8-dihydrothiazolo[4,5-g]quinazoline-2-carbimidate]",80,133,> 25,19
"COC(=N)c1nc2ccc3ncnc(Nc4ccc(OC)cc4F)c3c2s1 [Compound II, methyl 9-[(2-fluoro-4-methoxyphenyl)amino]thiazolo[5,4-f]quinazoline-2-carbimidate, reference compound]",52,32,5,9
"COC(=N)c1nc2ccc3c(=O)n(Cc4ccccc4)cnc3c2s1 [Compound 6d, Methyl 7-benzyl-6-oxo-6,7-dihydrothiazolo[4,5-h]quinazoline-2-carbimidate]",92,94,9,5

# — paper PMC11597202, “Novel Thiazole-Fused [4,5-g] or [5,4-g]Quinazolin-8-ones and Their Quinazoline Analogues: Synthesis and Biological Evaluation” (Pharmaceuticals, 2024)
